Data on 13 compounds can be found in patent publication US6861390B2, “Derivatives of UK-2A” (priority 2001, dated 2005).

Experiment [1] deals with Puccinia recondita (PUCCRT). Put plainly: Brown Rust of Wheat, whole plant 24 Hour Protectant (T5). The conditions noted are these: wheat (cultivar Yuma), sprayed at 100 ppm, inoculated after 24 hours, read-out: T5 PUCCRT in vivo 1 Day Protectant, control of fungal infection.
For experiment [2], the system named is Stagonospora nodorum (Leptosphaeria nodorum, LEPTNO). As to the kind of experiment: microbe, parasite or virus in culture. In kind it is cell-based. The conditions noted are these: Parastagonospora nodorum, read-out: T7 LEPTNO in vitro Growth Inhibition.
Experiment [3] has as its system Leptosphaeria nodorum (LEPTNO). As to the kind of experiment: Glume Blotch of Wheat, whole plant 24 Hour Protectant (T2). The conditions noted are these: Parastagonospora nodorum; wheat (cultivar Yuma), sprayed at 100 ppm, inoculated after 24 hours; read-out: T2 LEPTNO in vivo 1 Day Protectant, control of fungal infection.
The test system of experiment [4] is Magnaporthe grisea (Pyricularia oryzae, PYRIOR). As to the kind of experiment: microbe, parasite or virus in culture. Format: cell-based. The note with it: read-out: T9 PYRIOR in vitro Growth Inhibition.
The test system of experiment [5] is Phytophthora infestans (PHYTIN). As to the kind of experiment: microbe, parasite or virus in culture. Format: cell-based. The conditions noted are these: in Secale cereale, read-out: T8 PHYTIN in vitro Growth Inhibition.
Another experiment has as its system Ustilago maydis (USTIMA). Put plainly: microbe, parasite or virus in culture. Format: cell-based. The note with it: Mycosarcoma maydis, read-out: T12 USTIMA in vitro Growth Inhibition.
Experiment [6] has as its system Septoria tritici (SEPTTR). Put plainly: Leaf Blotch of Wheat, whole plant 24 Hour Protectant (T6). The conditions noted are these: Zymoseptoria tritici; wheat (cultivar Monon), sprayed at 100 ppm, inoculated after 24 hours; read-out: T6 SEPTTR in vivo 1 Day Protectant, control of fungal infection.
The test system of experiment [7] is Mycosphaerella graminicola (Septoria tritici, SEPTTR). Put plainly: microbe, parasite or virus in culture. Format: cell-based. The note with it: Zymoseptoria tritici, read-out: T11 SEPTTR in vitro Growth Inhibition.
For experiment [8], the system named is Phytophthora infestans (PHYTIN). As to the kind of experiment: whole plant or invertebrate. The note with it: in Solanum lycopersicum, 24 h, read-out: T3 PHYTIN in vivo 1 Day Protectant, control of fungal infection.
Experiment [9] concerns Erysiphe graminis (ERYSGT). Put plainly: Powdery Mildew of Wheat, whole plant 24 Hour Protectant (T1). The conditions noted are these: Blumeria graminis, in Triticum aestivum, read-out: T1 ERYSGT in vivo 1 Day Protectant, control of fungal infection.
Method: Compound formulation was accomplished by dissolving technical materials in acetone, with serial dilutions then made in acetone to obtain desired concentrations. Final treatment volumes were obtained by adding 9 volumes 0.01% Triton X-100.
Powdery Mildew of Wheat (Erysiphe graminis—ERYSGT) (24 Hour Protectant): Wheat (cultivar Monon) was grown in a soilless peat-based potting mixture (“Metromix”) and mineral soil (50/50 mix) until the seedlings were 10-20 cm tall. These plants were then sprayed to run-off with the test compound at a rate of 100 ppm. After 24 hours the test plants were inoculated by dusting with conidia from powdery mildew infected wheat plants. The plants were then transferred to the greenhouse until disease developed on the untreated control plants.
For experiment [10], the system named is Rhizoctonia solani (RHIZSO). Put plainly: microbe, parasite or virus in culture. Format: cell-based. The note with it: read-out: T10 RHIZSO in vitro Growth Inhibition.

Consider `COCCOCC(=O)OCOc1c(OC)ccnc1C(=O)N[C@H]1COC(=O)[C@H](Cc2ccccc2)[C@@H](OC(=O)C(C)C)[C@H](C)OC1=O` [Compound 40], for which the pest or weed control at 100 ppm in experiment [1] was 75 to 100%; in experiment [3], 75 to 100%; in experiment [6], 75 to 100%; in [8] it was under 25%; in experiment [9] it was 25 to 74%. In addition, the inhibition at 25 ppm in [2] is over 80%; in experiment [4] it was over 80%; in [5], under 80%; in the experiment on Ustilago maydis (USTIMA) it was over 80%; in experiment [7], over 80%; in experiment [10] it was over 80%.
As to `COc1ccnc(C(=O)N[C@H]2COC(=O)[C@H](Cc3ccccc3)[C@@H](OC(=O)C(C)C)[C@H](C)OC2=O)c1OCOC(=O)COC1CCCC1` [Compound 41], the pest or weed control at 100 ppm is 75 to 100% in experiment [1]; 75 to 100% in [3]; 75 to 100% in experiment [6]; under 25% in experiment [8]; 25 to 74% in experiment [9]. Moreover, the inhibition at 25 ppm in experiment [2] was over 80%; in experiment [4] it was over 80%; in experiment [5], under 80%; in the experiment with Ustilago maydis (USTIMA), over 80%; in [7], over 80%; in experiment [10], under 80%.
Regarding `COc1ccnc(C(=O)N[C@H]2COC(=O)[C@H](Cc3ccccc3)[C@@H](OC(=O)C(C)C)[C@H](C)OC2=O)c1OCOC(=O)COc1ccccc1` [Compound 42], the pest or weed control at 100 ppm in experiment [1] was 75 to 100%; in [3] it was 75 to 100%; in [6] it was under 25%; in [8], under 25%; in experiment [9] it was under 25%. For the same compound, the inhibition at 25 ppm in [2] was over 80%; in [4] it was over 80%; in experiment [5], under 80%; with Ustilago maydis (USTIMA), under 80%; in experiment [7] it was over 80%; in experiment [10] it was under 80%.
Take `COc1ccnc(C(=O)N[C@H]2COC(=O)[C@H](Cc3ccccc3)[C@@H](OC(=O)C(C)C)[C@H](C)OC2=O)c1OC1OC(=O)c2ccccc21` (some centres unmarked) [Compound 43]: the pest or weed control at 100 ppm in experiment [1] is 75 to 100%; in experiment [3], 75 to 100%; in experiment [6], 75 to 100%; in experiment [8] it was under 25%; in [9], 25 to 74%. Further, the inhibition at 25 ppm in experiment [2] was over 80%; in experiment [4], under 80%; in experiment [5] it was under 80%; in the experiment on Ustilago maydis (USTIMA), under 80%; in experiment [7], over 80%; in experiment [10], under 80%.
Take `CCOC(=O)OCOc1c(OC)ccnc1C(=O)N[C@H]1COC(=O)[C@H](Cc2ccccc2)[C@@H](OC(=O)C(C)C)[C@H](C)OC1=O` [Compound 45]: the pest or weed control at 100 ppm in [1] was in the range of 75 to 100%; in experiment [3], 75 to 100%; in experiment [6] it was 75 to 100%; in [8], 25 to 74%; in [9], 25 to 74%. In addition, the inhibition at 25 ppm in experiment [2] is over 80%; in [4], over 80%; in experiment [5], under 80%; with Ustilago maydis (USTIMA) it was under 80%; in [7], under 80%; in [10], under 80%.
In the case of `CCCOC(=O)OCOc1c(OC)ccnc1C(=O)N[C@H]1COC(=O)[C@H](Cc2ccccc2)[C@@H](OC(=O)C(C)C)[C@H](C)OC1=O` [Compound 46], the pest or weed control at 100 ppm is 75 to 100% in experiment [1]; 75 to 100% in experiment [3]; 75 to 100% in experiment [6]; under 25% in experiment [8]; 25 to 74% in [9]. The inhibition at 25 ppm is over 80% in experiment [2]; over 80% in experiment [4]; under 80% in experiment [5]; under 80% in the experiment with Ustilago maydis (USTIMA); under 80% in experiment [7]; under 80% in [10].
On to `COCCOC(=O)OCOc1c(OC)ccnc1C(=O)N[C@H]1COC(=O)[C@H](Cc2ccccc2)[C@@H](OC(=O)C(C)C)[C@H](C)OC1=O` [Compound 48], for which the pest or weed control at 100 ppm in [1] was 75 to 100%; in experiment [3], 75 to 100%; in experiment [6], 75 to 100%; in experiment [8] it was under 25%; in experiment [9] it was 75 to 100%. The inhibition at 25 ppm was over 80% in [2]; under 80% in experiment [4]; under 80% in [5]; over 80% in the experiment on Ustilago maydis (USTIMA); under 80% in experiment [7]; under 80% in [10].
On to `COCCC(=O)OCOc1c(OC)ccnc1C(=O)N[C@H]1COC(=O)[C@H](Cc2ccccc2)[C@@H](OCC(C)C)[C@H](C)OC1=O` [Compound 54], for which the pest or weed control at 100 ppm is 75 to 100% in experiment [1]; 75 to 100% in experiment [3]; 75 to 100% in [6]; under 25% in [8]; 75 to 100% in experiment [9]. Also, the inhibition at 25 ppm in experiment [2] was over 80%; in experiment [4], over 80%; in experiment [5], under 80%; in the experiment with Ustilago maydis (USTIMA), over 80%; in experiment [7], over 80%; in experiment [10] it was under 80%.
For the compound `CCCO[C@H]1[C@H](C)OC(=O)[C@@H](NC(=O)c2nccc(OC)c2OCOC(=O)CCOC)COC(=O)[C@@H]1Cc1ccccc1` [Compound 55], the pest or weed control at 100 ppm in [1] was 75 to 100%; in experiment [3], 75 to 100%; in experiment [6] it was 75 to 100%; in [8], under 25%; in experiment [9] it was 75 to 100%. Further, the inhibition at 25 ppm is over 80% in [2]; over 80% in [4]; under 80% in experiment [5]; under 80% in the experiment on Ustilago maydis (USTIMA); over 80% in [7]; under 80% in experiment [10].
As for `COc1ccnc(C(=O)N[C@H]2COC(=O)[C@H](Cc3ccccc3)[C@@H](OCC(C)C)[C@H](C)OC2=O)c1OCOC(=O)C1CC1` [Compound 56], the pest or weed control at 100 ppm in experiment [1] was 75 to 100%; in [3] it was 75 to 100%; in experiment [6] it was 75 to 100%; in experiment [8], under 25%; in experiment [9], 75 to 100%. Besides, the inhibition at 25 ppm in experiment [2] was over 80%; in [4], over 80%; in [5], under 80%; in the experiment on Ustilago maydis (USTIMA), under 80%; in experiment [7], over 80%; in experiment [10], under 80%.
Turning to `COCCOC(=O)OCOc1c(OC)ccnc1C(=O)N[C@H]1COC(=O)[C@H](Cc2ccccc2)[C@@H](OCC(C)C)[C@H](C)OC1=O` [Compound 57], the pest or weed control at 100 ppm in experiment [1] is 75 to 100%; in experiment [3] it was 75 to 100%; in [6], 75 to 100%; in [8], under 25%; in experiment [9], 75 to 100%. Also, the inhibition at 25 ppm was over 80% in experiment [2]; over 80% in [4]; under 80% in [5]; over 80% with Ustilago maydis (USTIMA); over 80% in experiment [7]; under 80% in experiment [10].
Consider `COCC(=O)OCOc1c(OC)ccnc1C(=O)N[C@H]1COC(=O)[C@H](Cc2ccccc2)[C@@H](OCC(C)C)[C@H](C)OC1=O` [Compound 58], for which the pest or weed control at 100 ppm is 75 to 100% in [1]; 75 to 100% in experiment [3]; 75 to 100% in [6]; under 25% in [8]; 75 to 100% in [9]. Also, the inhibition at 25 ppm in experiment [2] was over 80%; in experiment [4], over 80%; in experiment [5] it was over 80%; in the experiment with Ustilago maydis (USTIMA), over 80%; in [7], over 80%; in experiment [10], under 80%.
As for `CCOCC(=O)OCOc1c(OC)ccnc1C(=O)N[C@H]1COC(=O)[C@H](Cc2ccccc2)[C@@H](OCC(C)C)[C@H](C)OC1=O` [Compound 59], the pest or weed control at 100 ppm was 75 to 100% in experiment [1]; 75 to 100% in [3]; 75 to 100% in [6]; under 25% in [8]; 75 to 100% in experiment [9]. For the same compound, the inhibition at 25 ppm was over 80% in experiment [2]; over 80% in experiment [4]; over 80% in experiment [5]; over 80% with Ustilago maydis (USTIMA); over 80% in [7]; under 80% in experiment [10].

One may read the inhibition as the share of the control response that was lost under treatment.
